Measurements as given in US20230234943A1, “TREX1 INHIBITORS AND USES THEREOF” (Tempest Therapeutics, Inc., priority 2020, published 2023).

Target: T1, Human TREX1 enzyme (amino acids 1-242) (Homo sapiens, UniProt Q9NSU2)
T1 construct: Human TREX1 enzyme (amino acids 1-242)
T1 sequence (Q9NSU2 1-242): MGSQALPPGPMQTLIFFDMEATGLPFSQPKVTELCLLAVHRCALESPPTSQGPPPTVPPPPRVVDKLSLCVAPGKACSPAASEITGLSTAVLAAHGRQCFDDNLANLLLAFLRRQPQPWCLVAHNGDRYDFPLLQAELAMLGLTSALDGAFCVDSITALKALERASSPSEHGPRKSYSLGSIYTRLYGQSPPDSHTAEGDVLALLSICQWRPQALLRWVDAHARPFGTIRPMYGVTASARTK
Assay: Human TREX1 enzymatic assay with dsDNA native oligonucleotide (Picogreen fluorescence)
Type: biochemical
Conditions: 2 mM dithiothreitol in assay buffer; 50 nM dsDNA oligonucleotide; 30 min preincubation at 25° C.; read-out: TREX1/Human + DTT IC50 AVG
In short: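 Remaining dsDNA quantified by Picogreen fluorescence after EDTA quench, with no-enzyme and DMSO wells as controls. Reactions used 50 nM annealed oligonucleotide for 5–15 min at 25 °C, after a 30 min compound–enzyme preincubation (0.8–0.16 nM TREX1; 2% DMSO; pH 7.7 Tris, 5 mM MgCl2).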

Row | SMILES | IC50
1 | COc1cc(-c2nc3ccc(N4CCC4)cc3n2C2COC2)c(C)c(O)c1O [Example 283, 4-(6-(azetidin-1-yl)-1-(oxetan-3-yl)-1H-benzo[d]imidazol-2-yl)-6-methoxy-3-methylbenzene-1,2-diol] | 1 to 10 µM
2 | COc1cc(-c2nc3cc(C4CCCCC4)ccc3[nH]2)cc(O)c1O [Example 75, 5-(5-cyclohexyl-1H-benzo[d]imidazol-2-yl)-3-methoxybenzene-1,2-diol] | > 100 µM
3 | COC(=O)c1cc(-c2nc3cc(N4CCC4)ccc3[nH]2)cc(OC)c1O [Example 196, methyl 5˜(5-(azetidin-1-yl)-1H-benzo[d]imidazol-2-yl)-2-hydroxy-3-methoxybenzoate] | > 100 µM
4 | C=CCCC(=O)N1CCN(c2ccc3[nH]c(-c4cc(O)c(O)c(OC)c4)nc3c2)CC1 [Example 33, 1-(4-(2-(3,4-dihydroxy-5-methoxyphenyl)-1H-benzo[d]imidazol-5-yl)piperazin-1-yl)pent-4-en-1-one] | 10 to 100 µM
5 | COc1cc(-c2nc3ccccc3n2C2CCOCC2)c(C)c(O)c1O [Example 149, 6-methoxy-3-methyl-4-(1-(tetrahydro-2H-pyran-4-yl)-1H-benzo[d]imidazol-2-yl)benzene-1,2-diol] | 10 to 100 µM
6 | COc1cc(-c2nc3ccc(C(C)(C)O)cc3n2C2(C)COC2)c(F)c(O)c1O [Example 185, 3-fluoro-4-[6-(2-hydroxypropan-2-yl)-1-(3-methyloxetan-3-yl)-1H-1,3-benzodiazol-2-yl]-6-methoxybenzene-1,2-diol] | 1 to 10 µM
7 | COc1cc(-c2nc3cc(N4CCC4)ccc3n2C)c(C(F)(F)F)c(O)c1O [Example 221, 4-(5-(azetidin-1-yl)-1-methyl-1H-benzo[d]imidazol-2-yl)-6-methoxy-3-(trifluoromethyl)benzene-1,2-diol] | 1 to 10 µM
8 | COc1cc(-c2nc3ccccc3n2C2(C)COC2)c(C(F)(F)F)c(O)c1O [Example 315, 6-methoxy-4-(1-(3-methyloxetan-3-yl)-1H-benzo[d]imidazol-2-yl)-3-(trifluoromethyl)benzene-1,2-diol] | 10 to 100 µM
9 | COc1cc(-c2nc3cc(N4CCC4)ccc3n2C2COC2)cc(O)c1O [Example 284, 5-(5-(azetidin-1-yl)-1-(oxetan-3-yl)-1H-benzo[d]imidazol-2-yl)-3-methoxybenzene-1,2-diol] | 1 to 10 µM
10 | COc1cc(-c2nc3ccncc3n2C2COC2)cc(O)c1O [Example 43, 3-methoxy-5-(3-(oxetan-3-yl)-3H-imidazo[4,5-c]pyridin-2-yl)benzene-1,2-diol] | 10 to 100 µM
11 | COc1cc(-c2nc3ccccc3n2C23CC(C2)C3)c(F)c(O)c1O [Example 328, 4-(1-(bicyclo[1.1.1]pentan-1-yl)-1H-benzo[d]imidazol-2-yl)-3-fluoro-6-methoxybenzene-1,2-diol] | ≤ 0.1 µM
12 | O=C(O)c1cc(-c2nc3cc(N4CCC4)ccc3[nH]2)ccc1O [Example 115, 5-(5-(azetidin-1-yl)-1H-benzo[d]imidazol-2-yl)-2-hydroxybenzoic acid] | 10 to 100 µM
13 | COc1cc(-c2nc3ccncc3[nH]2)c(-c2cccnc2)c(O)c1O [Example 79, 4-(3H-imidazo[4,5-c]pyridin-2-yl)-6-methoxy-3-(pyridin-3-yl)benzene-1,2-diol] | > 100 µM
14 | O=C(O)c1ccc(-c2nc3ccccc3n2C2COC2)c(F)c1O [Example 141, 3-fluoro-2-hydroxy-4-(1-(oxetan-3-yl)-1H-benzo[d]imidazol-2-yl)benzoic acid] | > 100 µM
15 | COc1cc(-c2nc3ccc(CNc4ccccc4)cc3n2C2(C)COC2)c(F)c(O)c1O [Example 236, 3-fluoro-6-methoxy-4-(1-(3-methyloxetan-3-yl)-6-((phenylamino)methyl)-1H-benzo[d]imidazol-2-yl)benzene-1,2-diol] | 0.1 to 1 µM
16 | COc1cc(-c2nc3cc(N4CCN(Cc5ccc6ccccc6c5)CC4)ccc3[nH]2)cc(O)c1O [Example 82, 3-methoxy-5-(5-(4-(naphthalen-2-ylmethyl)piperazin-1-yl)-1H-benzo[d]imidazol-2-yl)benzene-1,2-diol] | > 100 µM
17 | Cc1cc(C(=O)O)c(O)cc1-c1nc2ccccc2n1C1COC1 [Example 171, 2-hydroxy-5-methyl-4-(1-(oxetan-3-yl)-1H-benzo[d]imidazol-2-yl)benzoic acid] | > 100 µM
18 | COc1cc(-c2nc3cc(N4CC(C#N)C4)ccc3[nH]2)cc(O)c1O [Example 138, 1-(2-(3,4-dihydroxy-5-methoxyphenyl)-1H-benzo[d]imidazol-5-yl)azetidine-3-carbonitrile] | > 100 µM
19 | COc1ccc2c(c1)CCN(c1ccc3[nH]c(-c4cc(O)c(O)c(OC)c4)nc3c1)C2 [Example 67, 3-methoxy-5-(5-(6-methoxy-3,4-dihydroisoquinolin-2(1H)-yl)-1H-benzo[d]imidazol-2-yl)benzene-1,2-diol] | > 100 µM

The next lines start with the values.

Row | IC50 | SMILES
20 | > 100 µM | COc1cc(-c2nc3ccccc3n2CC2CCC2)c(C)c(O)c1O [Example 239, 4-(1-(cyclobutylmethyl)-1H-benzo[d]imidazol-2-yl)-6-methoxy-3-methylbenzene-1,2-diol]
21 | > 100 µM | COc1cc(-c2nc3cc(N4CCN(C(=O)c5cc(C)cc(C)c5)CC4)ccc3[nH]2)cc(O)c1O [Example 125, (4-(2-(3,4-dihydroxy-5-methoxyphenyl)-1H-benzo[d]imidazol-5-yl)piperazin-1-yl)(3,5-dimethylphenyl)methanone]
22 | 0.1 to 1 µM | COc1cc(-c2nc3ccccc3n2C2CCC2)c(C)c(O)c1O [Example 168, 4-(1-cyclobutyl-1H-benzo[d]imidazol-2-yl)-6-methoxy-3-methylbenzene-1,2-diol]
23 | > 100 µM | COCCn1c(-c2cc(OC)c(O)c(O)c2C)nc2ccccc21 [Example 172, 6-methoxy-4-[1-(2-methoxyethyl)-1H-1,3-benzodiazol-2-yl]-3-methylbenzene-1,2-diol]
24 | > 100 µM | CNS(=O)(=O)c1ccc2[nH]c(-c3cc(O)c(O)c(OC)c3)nc2c1 [Example 20, 2-(3,4-dihydroxy-5-methoxyphenyl)-N-methyl-1H-benzo[d]imidazole-5-sulfonamide]
25 | 1 to 10 µM | O=C(O)c1ccc(-c2nc3cc(N4CCC4)ccc3[nH]2)c(F)c1O [Example 129, 4-(5-(azetidin-1-yl)-1H-benzo[d]imidazol-2-yl)-3-fluoro-2-hydroxybenzoic acid]
26 | > 100 µM | COc1cc(-c2nc3c(Cl)c(Cl)ccc3[nH]2)c(F)c(O)c1O [Example 202, 4-(6,7-dichloro-1H/benzo[d]imidazol-2-yl)-3-fluoro-6-methoxybenzene-1,2-diol]
27 | ≤ 0.1 µM | COc1cc(-c2nc3ccc(-c4ncno4)cc3n2C2(C)COC2)c(F)c(O)c1O [Example 181, 3-fluoro-6-methoxy-4-[1-(3-methyloxetan-3-yl)-6-(1,2,4-oxadiazol-5-yl)-1H-1,3-benzodiazol-2-yl] benzene-1,2-diol]
28 | > 100 µM | CCn1c(-c2cc(O)c(O)c(OC(C)C)c2)nc2cccnc21 [Example 29, 5-(3-ethyl-3H-imidazo[4,5-b]pyridin-2-yl)-3-isopropoxybenzene-1,2-diol]
29 | 10 to 100 µM | COc1c(C)c(-c2nc3ccccc3n2C2CCC2)c(F)c(O)c1O [Example 297, 4-(1-cyclobutyl-1H-benzo[d]imidazol-2-yl)-3-fluoro-6-methoxy-5-methylbenzene-1,2-diol]
30 | ≤ 0.1 µM | COc1cc(-c2nc3ccc(C(=O)Nc4ccon4)cc3n2C2(C)COC2)c(F)c(O)c1O [Example 258, 2-(2-fluoro-3,4-dihydroxy-5-methoxyphenyl)-1-(3-methyloxetan-3-yl)-N-(1,2-oxazol-3-yl)-1H-1,3-benzodiazole-6-carboxamide]
31 | ≤ 0.1 µM | COc1cc(-c2nc3ccc(C(=O)Nc4cccnc4)cc3n2C2(C)COC2)c(F)c(O)c1O [Example 250, 2-(2-fluoro-3,4-dihydroxy-5-methoxyphenyl)-1-(3-methyloxetan-3-yl)-N-(pyridin-3-yl)-1H-1,3-benzodiazole-6-carboxamide]
32 | 10 to 100 µM | COc1cc(-c2nc3ccc(S(=O)(=O)Nc4ccccc4)cc3n2C2COC2)cc(O)c1O [Example 39, 2-(3,4-dihydroxy-5-methoxyphenyl)-1-(oxetan-3-yl)-N-phenyl-1H-benzo[d]imidazole-6-sulfonamide]
33 | 1 to 10 µM | COc1cc(-c2nc3ccccc3n2C2(C)CCC2)c(C)c(O)c1O [Example 225, 6-methoxy-3-methyl-4-(1-(1-methylcyclobutyl)-1H-benzo[d]imidazol-2-yl)benzene-1,2-diol]
34 | 0.1 to 1 µM | COc1cc(-c2nc3cc(N4CCC4)ccc3n2C2CCC2)c(C)c(O)c1O [Example 193]
35 | 10 to 100 µM | COc1cc(-c2nc3ccccc3n2C2COC2)c(C(F)(F)F)c(O)c1O [Example 130, 6-methoxy-4-(1-(oxetan-3-yl)-1H-benzo[d]imidazol-2-yl)-3-(trifluoromethyl)benzene-1,2-diol]
36 | 10 to 100 µM | CCc1c(-c2nc3ccccc3n2C2(C)COC2)cc(OC)c(O)c1O [Example 173, 3-ethyl-6-methoxy-4-[1-(3-methyloxetan-3-yl)-1H-1,3-benzodiazol-2-yl]benzene-1,2-diol]
37 | 10 to 100 µM | O=C(O)c1ccc(-c2nc3cc(N4CCN(C(=O)c5ccccc5)CC4)ccc3[nH]2)cc1O [Example 118, 4-(5-(4-benzoylpiperazin-1-yl)-1H-benzo[d]imidazol-2-yl)-2-hydroxybenzoic acid]
38 | 10 to 100 µM | O=C(O)c1ccc(-c2nc3cc(N4CCN(c5cccnc5)CC4)ccc3[nH]2)cc1O [Example 119, 2-hydroxy-4-(5-(4-(pyridin-3-yl)piperazin-1-yl)-1H-benzo[d]imidazol-2-yl)benzoic acid]
